# Reference: publication PMC12345137 (mBio, 2025)
# Several values for one entry are separate records, joined by “and”; a condition that tells them apart may be missing. Equal entries are not always repeated. Where two headings read alike, the source gives them in different places. Positions of bridges follow the written chain, without caps; N, C: chain ends. Residues, ends and D or L forms follow the SMILES beside them.
# Key:
# [1] = biological target: S. aureus agr-II (Staphylococcus aureus, UniProt O33587); assay: cell-based
# Sequence of S. aureus agr-II (O33587 entry or part of it): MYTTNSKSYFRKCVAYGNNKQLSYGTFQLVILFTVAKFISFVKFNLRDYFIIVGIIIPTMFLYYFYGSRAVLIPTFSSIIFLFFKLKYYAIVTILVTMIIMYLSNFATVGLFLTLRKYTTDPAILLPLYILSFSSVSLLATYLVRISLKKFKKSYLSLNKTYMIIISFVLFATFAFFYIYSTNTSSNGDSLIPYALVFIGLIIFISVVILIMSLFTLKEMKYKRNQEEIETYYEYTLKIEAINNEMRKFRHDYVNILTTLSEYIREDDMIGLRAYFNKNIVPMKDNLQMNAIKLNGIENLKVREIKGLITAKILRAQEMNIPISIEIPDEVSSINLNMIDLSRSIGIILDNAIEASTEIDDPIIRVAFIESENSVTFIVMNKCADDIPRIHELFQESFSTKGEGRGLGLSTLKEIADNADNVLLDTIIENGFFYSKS
# Outline: (§1)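 Staphylococcal agr reporters were grown with peptide for 22–24 h at 37°C. Background-corrected fluorescence per OD600 was expressed as a percentage of untreated control, and IC50 was obtained by variable-slope regression.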
# [2] = biological target: S. lugdunensis agr-I (Staphylococcus lugdunensis, UniProt Q8VSW5); assay: cell-based; settings: fluorescent reporter strain; peptides tested at 1000, 50, 2.5, 0.125 nM or in dose-response
# Sequence of S. lugdunensis agr-I (Q8VSW5 entry or part of it): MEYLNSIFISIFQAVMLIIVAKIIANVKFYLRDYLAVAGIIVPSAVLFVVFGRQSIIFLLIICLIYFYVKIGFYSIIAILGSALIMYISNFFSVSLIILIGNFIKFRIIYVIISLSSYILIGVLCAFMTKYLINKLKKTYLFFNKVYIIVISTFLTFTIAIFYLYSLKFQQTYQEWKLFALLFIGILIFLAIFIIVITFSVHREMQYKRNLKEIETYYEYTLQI
# Outline: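 37°C, 1,000 rpm, 22–24 h in TSB + CAM or ERM (10 μg/mL); 1:5 serial peptide dilutions from 1 mM DMSO stocks; fluorescence (GFP ex 479/em 520, YFP ex 500/em 541) minus blank, ÷OD600, % of untreated control; IC50 by variable-slope fit.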
# [3] = biological target: S. aureus agr-IV (Staphylococcus aureus, UniProt Q309Z2); assay: cell-based; format: cell-based; settings: fluorescent reporter strain; peptides tested at 1000, 50, 2.5, 0.125 nM or in dose-response
# Sequence of S. aureus agr-IV (Q309Z2 entry or part of it): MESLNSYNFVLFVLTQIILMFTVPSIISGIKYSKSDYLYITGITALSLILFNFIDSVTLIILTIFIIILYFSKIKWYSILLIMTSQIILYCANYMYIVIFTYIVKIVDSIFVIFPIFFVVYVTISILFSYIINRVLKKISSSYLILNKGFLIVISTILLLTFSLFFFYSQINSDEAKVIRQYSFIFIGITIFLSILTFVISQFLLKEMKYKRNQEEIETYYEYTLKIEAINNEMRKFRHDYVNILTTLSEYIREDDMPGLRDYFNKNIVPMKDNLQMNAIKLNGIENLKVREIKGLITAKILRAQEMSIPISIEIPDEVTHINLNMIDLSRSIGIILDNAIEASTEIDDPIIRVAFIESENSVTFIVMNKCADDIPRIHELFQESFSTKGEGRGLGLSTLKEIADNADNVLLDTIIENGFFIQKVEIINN
# Outline: as §1
# [4] = biological target: S. epidermidis agr-III (Staphylococcus epidermidis, UniProt Q8VSX2); assay: cell-based; format: cell-based
# Sequence of S. epidermidis agr-III (Q8VSX2 entry or part of it): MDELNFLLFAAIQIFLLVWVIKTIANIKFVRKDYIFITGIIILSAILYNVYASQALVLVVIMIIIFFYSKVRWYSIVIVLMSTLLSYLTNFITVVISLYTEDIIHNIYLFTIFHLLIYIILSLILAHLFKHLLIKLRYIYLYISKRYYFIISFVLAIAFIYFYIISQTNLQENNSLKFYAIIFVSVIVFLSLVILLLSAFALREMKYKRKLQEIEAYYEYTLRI
# Outline: as §1
# [5] = biological target: T1, SA AgrC-II (Staphylococcus aureus, UniProt O33587); assay: β-Lactamase assay, reporter strain RN10829 (P2-agrA:P3-blaZ) with pagrC-II; format: cell-based; settings: 100 nM cognate AIP; ± SEM; -b = no inhibition recorded at the highest AIP concentration tested; -a = only partial inhibition observed; this study (curves in Fig. S20)
# T1 sequence (O33587 entry or part of it): as the sequence (O33587 entry or part of it) above
# Outline: (§2)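 Peptides at 10 μM–10 pM final were tested against 100 nM cognate AIP on early-exponential RN10829 cells that express the relevant AgrC from a plasmid and carry a chromosomal P3-blaZ reporter; incubation 1 h at 37°C. After freezing, β-lactamase was read as nitrocefin conversion at OD486, and IC50 came from non-linear regression of the rates.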
# [6] = biological target: T2, SA AgrC-III (Staphylococcus aureus, UniProt O33590); assay: β-Lactamase assay, reporter strain RN10829 (P2-agrA:P3-blaZ) with pagrC-III; format: cell-based
# T2 sequence (O33590 entry or part of it): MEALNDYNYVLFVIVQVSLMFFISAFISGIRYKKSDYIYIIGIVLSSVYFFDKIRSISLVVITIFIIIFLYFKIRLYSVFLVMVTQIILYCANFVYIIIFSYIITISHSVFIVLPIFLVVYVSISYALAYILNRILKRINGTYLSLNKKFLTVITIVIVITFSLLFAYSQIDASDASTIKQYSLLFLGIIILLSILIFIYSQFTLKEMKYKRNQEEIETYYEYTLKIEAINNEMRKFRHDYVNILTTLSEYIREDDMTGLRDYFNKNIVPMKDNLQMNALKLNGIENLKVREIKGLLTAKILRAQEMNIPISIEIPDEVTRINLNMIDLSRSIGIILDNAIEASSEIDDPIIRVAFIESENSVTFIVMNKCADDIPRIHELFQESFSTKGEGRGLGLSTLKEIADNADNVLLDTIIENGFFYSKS
# Outline: as §2
# [7] = biological target: T3, SA AgrC-IV (Staphylococcus aureus, UniProt Q309Z2); assay: β-Lactamase assay, reporter strain RN10829 (P2-agrA:P3-blaZ) with pagrC-IV; format: cell-based; settings: 100 nM cognate AIP; ± SEM; -b = no inhibition recorded at the highest AIP concentration tested; -a = only partial inhibition observed; this study (curves in Fig. S22)
# T3 sequence (Q309Z2 entry or part of it): as the sequence (Q309Z2 entry or part of it) above
# Outline: as §2
# [8] = test system: S. aureus (SA) agr-II; settings: fluorescence; ref (10); cited from earlier work
# [9] = test system: S. aureus (SA) agr-III; settings: fluorescence, cited from earlier work
# [10] = test system: S. aureus (SA) agr-IV; settings: fluorescence, cited from earlier work
# [11] = test system: S. aureus (SA) agr-I; set-up: method as in ref (9) (a number printed in a supplementary file, which may have a reference list of its own: not looked up in the article's list); settings: HPLC d-toxin; ref (9); cited from earlier work
# [12] = test system: S. aureus (SA) agr-II; set-up: method as in ref (9) (a number printed in a supplementary file, which may have a reference list of its own: not looked up in the article's list); settings: HPLC d-toxin; ref (9); cited from earlier work
# [13] = test system: S. aureus (SA) agr-III; set-up: method as in ref (9) (a number printed in a supplementary file, which may have a reference list of its own: not looked up in the article's list); settings: HPLC d-toxin; ref (9); cited from earlier work
# [14] = test system: S. aureus (SA) agr-IV; set-up: method as in ref (9) (a number printed in a supplementary file, which may have a reference list of its own: not looked up in the article's list); settings: HPLC d-toxin, ref (9); cited from earlier work
# [15] = test system: S. epidermidis (SE) agr-I; settings: fluorescence, cited from earlier work
# [16] = test system: S. epidermidis (SE) agr-II; settings: fluorescence; from supernatant; ref (18); cited from earlier work
# [17] = test system: S. epidermidis (SE) agr-III; settings: fluorescence; from supernatant; ref (18); cited from earlier work
# [18] = biological target: SA AgrC-I (Staphylococcus aureus, UniProt O07911); settings: 100 nM cognate AIP; ± SEM; -b = no inhibition recorded at the highest AIP concentration tested; determined previously; ref (1); read-out: IC50, SA AgrC-I, b-lactamase assay; cited from earlier work
# Sequence of SA AgrC-I (O07911 entry or part of it): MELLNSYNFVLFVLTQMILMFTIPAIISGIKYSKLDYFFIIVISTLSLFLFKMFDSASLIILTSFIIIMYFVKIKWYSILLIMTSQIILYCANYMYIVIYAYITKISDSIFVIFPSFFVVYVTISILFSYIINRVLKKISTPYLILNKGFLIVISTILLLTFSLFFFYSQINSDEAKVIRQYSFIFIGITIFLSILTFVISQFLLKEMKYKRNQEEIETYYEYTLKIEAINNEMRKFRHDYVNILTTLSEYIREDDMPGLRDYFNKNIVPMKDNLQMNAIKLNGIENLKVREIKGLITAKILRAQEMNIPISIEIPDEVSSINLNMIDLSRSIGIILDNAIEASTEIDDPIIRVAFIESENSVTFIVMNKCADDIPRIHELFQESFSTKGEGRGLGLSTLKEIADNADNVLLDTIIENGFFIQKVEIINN
# [19] = biological target: T1, SA AgrC-II; settings: ± SEM, determined previously, ref (1), cited from earlier work
# [20] = biological target: T2, SA AgrC-III; settings: ± SEM, determined previously, ref (1), cited from earlier work
# [21] = biological target: T3, SA AgrC-IV; settings: 100 nM cognate AIP; ± SEM; -b = no inhibition recorded at the highest AIP concentration tested; determined previously; ref (1); read-out: IC50, SA AgrC-IV, b-lactamase assay; cited from earlier work
# [22] = test system: S. aureus (SA) agr-I; settings: b-lactamase, cited from earlier work
# [23] = test system: S. aureus (SA) agr-II; settings: b-lactamase, cited from earlier work
# [24] = test system: S. aureus (SA) agr-III; settings: b-lactamase, cited from earlier work
# [25] = test system: S. aureus (SA) agr-IV; settings: b-lactamase; ref (4); cited from earlier work
# [26] = test system: S. aureus (SA) agr-I; settings: fluorescence; ref (5); cited from earlier work
# [27] = test system: S. aureus (SA) agr-I; set-up: method as in ref (5) (a number printed in a supplementary file, which may have a reference list of its own: not looked up in the article's list); settings: hemolysis; ref (5); cited from earlier work
# [28] = test system: S. aureus (SA) agr-III; set-up: method as in ref (5) (a number printed in a supplementary file, which may have a reference list of its own: not looked up in the article's list); settings: hemolysis; ref (5); cited from earlier work
# [29] = test system: S. aureus (SA) agr-IV; set-up: method as in ref (5) (a number printed in a supplementary file, which may have a reference list of its own: not looked up in the article's list); settings: hemolysis; ref (5); cited from earlier work
# [30] = test system: S. epidermidis (SE) agr-I; set-up: method as in ref (9) (a number printed in a supplementary file, which may have a reference list of its own: not looked up in the article's list); settings: HPLC d-toxin, ref (9); cited from earlier work
# [31] = test system: S. aureus (SA) agr-II; set-up: method as in ref (5) (a number printed in a supplementary file, which may have a reference list of its own: not looked up in the article's list); settings: hemolysis; ref (5); cited from earlier work
molecule,measurement,setting,value
"CC(C)[C@H](NC(=O)[C@H](CO)NC(=O)[C@@H](N)CC(=O)O)C(=O)N[C@H]1CSC(=O)[C@H](Cc2ccccc2)NC(=O)[C@H](Cc2ccc(O)cc2)NC(=O)[C@H](CO)NC(=O)[C@H](C)NC1=O [compound 5, S. epidermidis AIP-I] (H-DSVCASYF; thioester 4-C)",IC50,[1],0.858 µM
same,"QS interaction in words (inhibition / activation), S. lugdunensis agr-I",[2],no effect at 1000 nM
same,"QS interaction in words (inhibition / activation), S. aureus agr-IV",[3],no effect at 1000 nM
same,IC50,[4],0.0086 ± 0.0007 µM
same,"IC50, SA AgrC-II, b-lactamase assay",[5],-b
same,IC50,[6],> 1 µM
same,"IC50, SA AgrC-IV, b-lactamase assay",[7],-b
same,IC50,[8],> 1 µM
same,IC50,[9]; ref (10),0.013 µM
same,IC50,[10]; ref (10),> 1 µM
same,IC50,[11],~0.25 µM
same,IC50,[12],0.03 to 0.04 µM
same,IC50,[13],~0.01 µM
same,"inhibition at 1000 nM, SA agr-IV",[14],no inhibition
same,"effect from supernatant (% inhibition, activation or no effect), SE agr-I","[15]; from supernatant, ref (18)",activation
same,EC50,[15]; ref (11),0.196 µM
same,"effect from supernatant (% inhibition, activation or no effect), SE agr-II",[16],~ 90%
same,"effect from supernatant (% inhibition, activation or no effect), SE agr-III",[17],~ 90%
S. aureus AIP-II [compound 2],IC50,[18],0.11 ± 0.012 µM
same,EC50,"[19]; read-out: EC50, SA AgrC-II, b-lactamase assay",0.0037 ± 0.0005 µM
same,IC50,"[20]; 100 nM cognate AIP, -b = no inhibition recorded at the highest AIP concentration tested, read-out: IC50, SA AgrC-III, b-lactamase assay",0.04 ± 0.015 µM
same,IC50,[21],0.23 ± 0.019 µM
same,IC50,[22]; ref (2),0.0029 ± 0.0012 µM
same,IC50,[22]; ref (3),0.09 µM and 0.078 µM
same,IC50,[22]; ref (4),0.04 µM
same,IC50,[22]; ref (8),0.012 ± 0.0029 µM
same,EC50,[23]; ref (3),0.034 µM and 0.028 µM
same,EC50,[23]; ref (4),0.03 µM
same,EC50,[23]; ref (7),0.0409 µM
same,IC50,[24]; ref (2),0.0032 ± 0.0013 µM
same,IC50,[24]; ref (4),0.001 µM
same,IC50,[25],0.086 µM
same,IC50,[26],0.00162 µM
same,IC50,[9]; ref (5),0.00053 µM
same,IC50,[10]; ref (5),0.0004 µM
same,IC50,[27],0.00089 µM
same,IC50,[28],0.00359 µM
same,IC50,[29],0.00119 µM
same,IC50,[15]; ref (11),0.0629 µM
same,"inhibition at 1000 nM, SE agr-I",[30],no inhibition
S. aureus AIP-III [compound 3],IC50,[18],0.12 ± 0.015 µM
same,IC50,"[19]; 100 nM cognate AIP, -b = no inhibition recorded at the highest AIP concentration tested, read-out: IC50, SA AgrC-II, b-lactamase assay",0.15 ± 0.063 µM
same,EC50,"[20]; read-out: EC50, SA AgrC-III, b-lactamase assay",0.011 ± 0.001 µM
same,IC50,[21],> 1 µM
same,IC50,[22]; ref (4),0.07 µM
same,IC50,[22]; ref (8),0.008 ± 0.0011 µM
same,IC50,[23]; ref (4),0.006 µM
same,EC50,[24]; ref (4),0.026 µM
same,EC50,[24]; ref (7),0.406 µM
same,IC50,[25],0.15 µM
same,IC50,[26],0.00505 µM
same,IC50,[27],0.00807 µM
same,IC50,[31],0.00046 µM
same,IC50,[29],0.0238 µM
same,"inhibition at 1000 nM, SE agr-I","[15]; at 1000 nM, ref (11)",no inhibition
same,"inhibition at 1000 nM, SE agr-I",[30],no inhibition
